From US20130029970A1 (priority 2009, published 2013)
Where two headings read alike, the source gives them in different places.

Legend:
human CB1 receptors = target: T1, human CB1 receptors (Homo sapiens, UniProt P21554); experiment: cAMP assay in HEK-293 cells, hCB1 agonist; assay type: cell-based; conditions: inhibition of forskolin-stimulated cAMP, HEK-293 cells
T1 construct: (cDNA clone) CNR01L000
Description: (§1) Stable, HEK-293-derived cell lines that recombinantly express hCBI or hCB2 were established. In brief, the clone hCB1 (CNR IL) or hCB2 (CNR2) was transfected into human embryonic kidney cells (HEK-293) using Lipofectamine 2000 (Gibco, Cat#11668-019) according to the manufacturer's protocol. Transfected clones were isolated by single colony purification and clones were screened for receptor expression using a whole cell, ^3H—CP 55,940 radioligand binding assay. HEK-293 stable cells were maintained in Dulbecco's modified Eagles medium (DMEM) containing 10% fetal bovine serum, 2 mM L-glutamine and 0.5 mg/mL G-418.
(§2) Functional assays which monitor G-protein coupled receptor or downstream cellular responses can be used to characterize potential CB1 receptor and/or CB2 receptor agonist or antagonist activities. Direct activation (or inhibition of activation) can be monitored using a GTPγS assay (membrane-based assay) or cAMP assay (whole cell-based assay).
(§3) cAMP assays were performed in HEK-293 cells stably expressing human CB1 or CB2 receptors. For cannabinoid receptor functional assays measuring agonist effects on cellular cAMP levels, monolayers of cultured cells were harvested with enzyme-free PBS-based cell dissociation buffer (Gibco, Cat#13151-04). Cells suspensions were centrifuged and the cells were washed once with PBS, were centrifuged again, and the cells were re-suspended in HBSS (Hank's Balanced Salt Solution, Cellgro, Cat #21-022-CV) solution containing 10 mM HEPES and 0.1% fatty acid free BSA (Sigma, Cat #A0281). Cell suspensions were prepared at 1,500,000 cells per ml. Stock solutions of test substances (10 mM) in DMSO were diluted to 1 mM using 30% DMSO as diluent. Test substances of solutions (1 mM) were further diluted down to 3× of final assay concentrations in the above HBSS buffer containing 0.1% BSA in the presence of 90 uM forskolin (Sigma Cat#F6886). To perform the assay, 20 uL of cell suspension (1,500,000 cells/mL) were added to each well in 96 well plate and treated with 10 uL test substance solution diluted as described above. Cells and compounds were incubated at 37° C. for 30 minutes. Cells were lysed and cAMP concentration was measured using DiscoveRx −XS+ cAMP assay kit (DiscoveRx Corporation Ltd., Fremont, Calif., USA, Cat #90-0075-03), following the manufacturer's protocol. GraphPad Prism software was used to calculate EC50 values using sigmoidal dose response curve fitting. The maximal amount of cAMP produced by forskolin was defined as 100%. CB1 or CB2 agonists reduced forskolin-stimulated cAMP signaling. The EC50 value of an agonist compound was defined as the concentration at which 50% of the forskolin-stimulated cAMP synthesis was inhibited.

human CB2 receptors = target: T2, human CB2 receptors (Homo sapiens, UniProt P34972); experiment: cAMP assay in HEK-293 cells, hCB2 agonist; assay type: cell-based; conditions: inhibition of forskolin-stimulated cAMP, HEK-293 cells; for EC50: read-out: hCB2 EC50 (cAMP ag)
T2 construct: (cDNA clone) CNR0200000
T2 sequence (P34972 whole entry): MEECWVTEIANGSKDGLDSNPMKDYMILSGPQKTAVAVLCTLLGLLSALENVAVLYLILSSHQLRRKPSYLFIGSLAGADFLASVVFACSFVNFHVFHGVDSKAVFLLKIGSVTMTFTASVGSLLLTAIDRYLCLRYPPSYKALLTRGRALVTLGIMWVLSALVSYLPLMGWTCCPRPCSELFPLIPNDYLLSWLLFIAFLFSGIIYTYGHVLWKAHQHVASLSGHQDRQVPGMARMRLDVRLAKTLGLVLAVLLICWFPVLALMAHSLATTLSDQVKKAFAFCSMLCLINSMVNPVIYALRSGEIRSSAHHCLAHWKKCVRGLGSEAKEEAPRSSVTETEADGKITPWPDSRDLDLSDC
Description: as §2
as §3, with “For cannabinoid receptor functional assays measuring agonist effects on cellular cAMP levels, monolayers of cultured cells were harvested with enzyme-free PBS-based cell dissociation buffer (Gibco, Cat#13151-04).” left out, “100%.” for “100%. CB1 or CB2 agonists reduced forskolin-stimulated cAMP signaling. The EC50 value of an agonist compound was defined as the concentration at which 50% of the forskolin-stimulated cAMP synthesis was inhibited.”

[1] = target: T3, recombinant human cannabinoid receptor CB2 (Homo sapiens, UniProt P34972); experiment: Cannabinoid receptor radioligand binding assay, [3H]-CP 55,940 displacement, hCB2
T3 construct: (cDNA clone) CNR0200000
T3 sequence (P34972 whole entry): as above
Description: (§4) Membranes were isolated from transfected cells as follows. Monolayers of cultured cells were washed twice with phosphate-buffered saline (PBS). […] Homogenates were centrifuged 10 minutes at 1000×g at 4° C. The supernatant was collected and was centrifuged for 1 hour at 40,000×g. The supernatant was then decanted and the resulting pellet was re-suspended in 20 mM HEPES, pH 7.4, 5 mM MgCl2, 1 mM EDTA, 10% sucrose with complete cocktail protease inhibitors. Protein concentration of membrane suspensions were measured by Bradford Protein Assay using bovine serum albumin as the standard (BioRad catalog #500-0006). Protein concentrations of membrane suspensions were adjusted with the final buffer in the range of 5 to 10 mg/mL and were stored at −80° C. until further use.
A rapid filtration technique using Millipore FB filter plates (Catalog #MADVNOB) and filtration apparatus (Millipore system Catalog MAVM0960R) with vacuum aspiration was used to harvest and rinse labeled membranes (8 times with 0.2 mL of chilled binding buffer). […] Binding data were analyzed using GraphPad Prism (GraphPad Software, Inc. San Diego, Calif.).

[2] = target: T4, recombinant human cannabinoid receptor CB1 (Homo sapiens, UniProt P21554); experiment: Cannabinoid receptor radioligand binding assay, [3H]-CP 55,940 displacement, hCB1; conditions: displacement of 0.5 nM [3H]-CP 55,940; read-out: hCB1 IC50 (CP displ)
T4 construct: (cDNA clone) CNR01L000
T4 sequence (P21554 whole entry): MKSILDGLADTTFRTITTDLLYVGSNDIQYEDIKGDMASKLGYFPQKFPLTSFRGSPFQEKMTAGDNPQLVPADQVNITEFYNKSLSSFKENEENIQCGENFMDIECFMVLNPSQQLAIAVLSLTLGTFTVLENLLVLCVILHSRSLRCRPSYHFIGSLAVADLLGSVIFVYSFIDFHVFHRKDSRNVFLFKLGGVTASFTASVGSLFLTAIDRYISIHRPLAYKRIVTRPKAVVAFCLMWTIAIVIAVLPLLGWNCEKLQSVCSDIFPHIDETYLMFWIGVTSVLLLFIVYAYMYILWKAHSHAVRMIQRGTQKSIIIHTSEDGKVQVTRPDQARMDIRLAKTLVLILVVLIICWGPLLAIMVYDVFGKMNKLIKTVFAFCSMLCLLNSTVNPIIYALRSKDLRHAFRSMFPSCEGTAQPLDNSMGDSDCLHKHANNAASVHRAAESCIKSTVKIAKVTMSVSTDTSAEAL
Description: as §1
Membranes were isolated from transfected cells as follows. Monolayers of cultured cells were washed twice with phosphate-buffered saline (PBS). Cells were scraped into 20 mM HEPES, pH 7.4, 10 mM EDTA containing complete cocktail protease inhibitors (Roche, Catalog #11 697 498 001) and were homogenized by an electric-powered mechanical probe homogenizer (Omni GLH; probe G7-195S) for 40 seconds at 7000 rpm. Homogenates were centrifuged 10 minutes at 1000×g at 4° C. The supernatant was collected and was centrifuged for 1 hour at 40,000×g. The supernatant was then decanted and the resulting pellet was re-suspended in 20 mM HEPES, pH 7.4, 5 mM MgCl2, 1 mM EDTA, 10% sucrose with complete cocktail protease inhibitors. Protein concentration of membrane suspensions were measured by Bradford Protein Assay using bovine serum albumin as the standard (BioRad catalog #500-0006). Protein concentrations of membrane suspensions were adjusted with the final buffer in the range of 5 to 10 mg/mL and were stored at −80° C. until further use.
Radioligand binding assays were performed by incubating membranes (2-10 μg protein) prepared from HEK-293 cells expressing recombinant human cannabinoid receptors, CB1 or CB2, at room temperature with 0.5 nM cannabinoid receptor agonist, [^3H]-CP 55,940 (Perkin Elmer, catalog #NET1051) in 0.2 mL of binding buffer (50 mM Tris-HCl, pH 7.5, 5 mM MgCl2, 2.5 mM EDTA) and 0.1% fatty acid free bovine serum albumin (Sigma Cat. #A0821) for 90 minutes. A rapid filtration technique using Millipore FB filter plates (Catalog #MADVNOB) and filtration apparatus (Millipore system Catalog MAVM0960R) with vacuum aspiration was used to harvest and rinse labeled membranes (8 times with 0.2 mL of chilled binding buffer). The radioactivity bound to the filters was counted with 0.05 mL of liquid scintillant (UltraGold MV, PerkinElmer catalog #6013159) in a scintillation counter (Perkin Elmer Microbeta instrument). Nonspecific binding was determined in the presence of unlabeled 1 μM CP 55,940 (Sigma Aldrich, catalog #C1112). Binding data were analyzed using GraphPad Prism (GraphPad Software, Inc. San Diego, Calif.).

human CB2 (hCB2) = target: T5, human CB2 (hCB2) (Homo sapiens, UniProt P34972); experiment: 35S GTPγS binding assay, hCB2 agonist; assay type: biochemical; conditions: GTPγS agonist, HEK-293 membranes; read-out: hCB2 EC50 (GTPyS ag)
T5 construct: (cDNA clone) CNR0200000
T5 sequence (P34972 whole entry): as the sequence (P34972 whole entry) above
Description: cDNA expression clones for human CB1 (hCB1, Genbank Accession No. AY225225) and human CB2 (hCB2, Genbank Accession No. AY242132) expressed in vector pcDNA3.1+ were purchased from UMR cDNA Resource Center, Rolla, Mo. (Clone ID CNR01L000 for hCB1; CNR0200000 for hCB2).
as §4, §2
^35S GTPγS binding assays were performed by incubating recombinant cell membranes prepared above (5 μg) in the presence of scintillation proximity assay beads (SPA beads, Catalog #RPNQ0252 GE Healthcare, Buckinghamshire, England) in GTPγS binding buffer [50 mM HEPES (pH 7.4), 100 mM NaCl, 5 mM MgCl2, 0.001% saponin (Sigma catalog #S4521)] supplemented with 20 uM GDP (Sigma catalog #G7127) in the presence or absence of test compound. The reaction was carried out in 96-well microplates with 0.1 nM [^35S]GTPγS (specific activity=1250 Ci/mmol; Perkin Elmer catalog #NEG030X250UC) in a final volume of 100 uL. After a 90 min room temperature incubation, the reaction was analyzed using a scintillation counter (Perkin Elmer Microbeta instrument). Binding data were analyzed using GraphPad Prism.

T1 sequence (P21554 whole entry): as the sequence (P21554 whole entry) above

Row | SMILES | hCB1 EC50 (cAMP ag, nM) (human CB1 receptors) | hCB2 EC50 (cAMP ag, nM) (human CB2 receptors) | IC50 ([1]; displacement of 0.5 nM [3H]-CP 55,940, read-out: hCB2 IC50 (CP displ)) | IC50 [2] | IC50 [1] | EC50 (human CB2 (hCB2)) | EC50 (human CB2 receptors)
1 | COc1ccc(C(=O)c2cc3cc(C)n(CCN4CCNC4=O)c3s2)cc1 [Compound 61] | NS (NS means “Not Significant,” which means less than 30% agonist activity when compared to the positive control.) | NS (NS means “Not Significant,” which means less than 30% agonist activity when compared to the positive control.) | – | – | – | – | –
2 | COc1ccc(C(=O)c2cc3cc(C)n(CCCNC(C)=O)c3s2)cc1 [Compound 63, N-(3-(2-(4-Methoxybenzoyl)-5-methyl-6H-thieno[2,3-b]pyrrol-6-yl)propyl)acetamide] | NS (NS means “Not Significant,” which means less than 30% agonist activity when compared to the positive control.) | NS (NS means “Not Significant,” which means less than 30% agonist activity when compared to the positive control.) | – | – | – | – | –
3 | COc1ccc(C(=O)c2cc3cc(C)n(C(=O)N4CCOCC4)c3s2)cc1 [Compound 66, (2-(4-Methoxybenzoyl)-5-methyl-6H-thieno[2,3-b]pyrrol-6-yl)(morpholino)methanone] | NS (NS means “Not Significant,” which means less than 30% agonist activity when compared to the positive control.) | – | > 10 µM | > 10 µM | – | – | –
4 | COc1ccc(C(=O)c2cc3cc(C)n(CCCNS(=O)(=O)C(F)(F)F)c3s2)cc1 [Compound 75, 1,1,1-Trifluoro-N-(3-(2-(4-methoxybenzoyl)-5-methyl-6H-thieno[2,3-b]pyrrol-6-yl)propyl)methanesulfonamide] | NS (NS means “Not Significant,” which means less than 30% agonist activity when compared to the positive control.) | NS (NS means “Not Significant,” which means less than 30% agonist activity when compared to the positive control.) | – | – | – | – | –
5 | CCOc1ccc(C(=O)c2cc3cc(C)n(CCCNS(C)(=O)=O)c3s2)cc1 [Compound 94, N-(3-(2-(4-Ethoxybenzoyl)-5-methyl-6H-thieno[2,3-b]pyrrol-6-yl)propyl)methanesulfonamide] | NS (NS means “Not Significant,” which means less than 30% agonist activity when compared to the positive control.) | – | – | – | 0.1 to 1 µM | < 0.1 µM | 0.1 to 1 µM
6 | CCOc1ccc(C(=O)c2cc3cc(C)n(CCCNS(C)(=O)=O)c3s2)c(F)c1 [Compound 95, N-(3-(2-(4-Ethoxy-2-fluorobenzoyl)-5-methyl-6H-thieno[2,3-b]pyrrol-6-yl)propyl)methanesulfonamide] | NS (NS means “Not Significant,” which means less than 30% agonist activity when compared to the positive control.) | – | – | – | 0.1 to 1 µM | 0.1 to 1 µM | < 0.1 µM
7 | Cc1ccc(C(=O)c2cc3cc(C)n(CCCNS(C)(=O)=O)c3s2)c(F)c1 [Compound 97, N-(3-(2-(2-Fluoro-4-methylbenzoyl)-5-methyl-6H-thieno[2,3-b]pyrrol-6-yl)propyl)methanesulfonamide] | NS (NS means “Not Significant,” which means less than 30% agonist activity when compared to the positive control.) | – | – | – | 0.1 to 1 µM | < 0.1 µM | < 0.1 µM
8 | COc1ncc(C(=O)c2cc3cc(C)n(CCN4CCOCC4)c3s2)cn1 [Compound 118, (2-Methoxypyrimidin-5-yl)(5-methyl-6-(2-morpholinoethyl)-6H-thieno[2,3-b]pyrrol-2-yl)methanone] | NS (NS means “Not Significant,” which means less than 30% agonist activity when compared to the positive control.) | – | – | – | – | 0.1 to 1 µM | 0.1 to 1 µM
